For twelve molecules, TGI and GI50 results are on record in PubChem BioAssay (NCI).

Some test systems named below: UACC-62 melanoma; RPMI-8226 leukemia; TK-10 renal; HCT-15 colon; K-562 leukemia; HCC-2998 colon; CCRF-CEM leukemia; COLO 205 colon; SNB-19 CNS; NCI/ADR-RES ovarian.
Assay in all cases: growth of human tumour cells (NCI), 48 h

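48-hour exposure; five concentrations; linearly interpolated endpoints. At the GI50, growth is halved. TGI: concentration producing complete growth inhibition.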

`CCOC(=O)C(C)(c1cn(C)c2ccccc12)c1cn(C)c2ccccc12`: the TGI with UACC-62 melanoma, with RPMI-8226 leukemia, with TK-10 renal, in the test on HCT-15 colon, in the test with K-562 leukemia and in the test on HCC-2998 colon was greater than 100 µM throughout. The molecule further came in with a TGI in the test with CCRF-CEM leukemia greater than 100 µM.

In the case of `COc1ccc(OC)c(NC(=O)CCC/C(CC(=O)c2ccc(O)c(OC)c2)=N\NC(=O)C[N+](C)(C)C)c1`, the TGI in the test on UACC-62 melanoma, in the test with RPMI-8226 leukemia, in the test with TK-10 renal, in the test with HCT-15 colon, in the test with COLO 205 colon and with K-562 leukemia was greater than 100 µM each time. Moreover, the TGI with HCC-2998 colon, with SNB-19 CNS and with CCRF-CEM leukemia was greater than 100 µM throughout.

`CCOC(=O)C1=C(NC)OC/C1=N\NC(=O)c1ccccc1O`: the TGI with UACC-62 melanoma is 80.5 µM; with RPMI-8226 leukemia it was greater than 100 µM; with TK-10 renal, greater than 100 µM; in the test with COLO 205 colon, greater than 100 µM; with K-562 leukemia, greater than 100 µM; with HCC-2998 colon it was greater than 100 µM. For the same molecule, the TGI with SNB-19 CNS and with CCRF-CEM leukemia was greater than 100 µM in each case.

Regarding `CCOC(=O)c1oc2ccc(OC)c3c2c1CCC3`, the TGI with UACC-62 melanoma, in the test on RPMI-8226 leukemia, with TK-10 renal, in the test on HCT-15 colon, in the test with COLO 205 colon and with K-562 leukemia was greater than 100 µM throughout. Also, the TGI in the test with HCC-2998 colon, in the test with SNB-19 CNS and in the test on CCRF-CEM leukemia was greater than 100 µM each time.

In the case of `CN(C)c1nc(=Nc2ccc3ccccc3c2)ss1`, the TGI in the test on UACC-62 melanoma is greater than 100 µM; in the test with RPMI-8226 leukemia it was 52.5 µM; in the test on TK-10 renal, 71.1 µM; with HCT-15 colon, greater than 100 µM; in the test with COLO 205 colon, 23.2 µM; in the test with K-562 leukemia, greater than 100 µM. Further, the values for the TGI in the test on HCC-2998 colon, with SNB-19 CNS and with CCRF-CEM leukemia were greater than 100 µM, greater than 100 µM and 73.5 µM, respectively.

On to `COC1CC(OS(=O)(=O)c2ccc(C)cc2)C(OC(=O)c2ccccc2)C(C)O1` (configuration not stated), for which the TGI in the test on UACC-62 melanoma, with RPMI-8226 leukemia, in the test with TK-10 renal, in the test with HCT-15 colon, in the test with COLO 205 colon and in the test with K-562 leukemia was greater than 100 µM throughout. Besides, the TGI with HCC-2998 colon, in the test with SNB-19 CNS and with CCRF-CEM leukemia was greater than 100 µM throughout. Also, the GI50 in the test with TK-10 renal was greater than 100000 nM; in the test on HCT-15 colon, greater than 100000 nM; with COLO 205 colon, greater than 100 µM; with K-562 leukemia, greater than 100000 nM; in the test with HCC-2998 colon it was greater than 100 µM; in the test on SNB-19 CNS it was greater than 100000 nM. The GI50 in the test on CCRF-CEM leukemia is greater than 100000 nM.

`COc1cc2nc(N3CCCC3)nc(NCC3CCCCC3)c2cc1OC`: the GI50 is 1740 nM in the test with UACC-62 melanoma; 1730 nM in the test on TK-10 renal; 505 nM in the test on HCT-15 colon; 0.223 µM in the test with COLO 205 colon; 334 nM in the test on K-562 leukemia; 0.444 µM with HCC-2998 colon. The GI50 with NCI/ADR-RES ovarian was 1510 nM; in the test on SNB-19 CNS, 1590 nM; in the test on CCRF-CEM leukemia, 1090 nM. Further, the TGI with UACC-62 melanoma worked out at 3.21 µM; with TK-10 renal, 3.28 µM; in the test on HCT-15 colon it was 1.8 µM; in the test with COLO 205 colon it was 0.499 µM; in the test on K-562 leukemia it was 2.1 µM; in the test with HCC-2998 colon it was 1.62 µM. The TGI in the test with NCI/ADR-RES ovarian came out at 3.47 µM; with SNB-19 CNS it was 2.99 µM; in the test on CCRF-CEM leukemia, 3.5 µM.

As for `Cn1c2c(cc(S(=O)(=O)c3ccccc3)c1=O)CCc1c-2cnn1-c1ccc(Cl)cc1`, the GI50 with UACC-62 melanoma was 2350 nM; in the test with TK-10 renal it was 2260 nM; in the test on HCT-15 colon, 3020 nM; in the test with COLO 205 colon, greater than 100 µM; in the test with K-562 leukemia, greater than 100000 nM; in the test on HCC-2998 colon, 7.31 µM. Besides, the GI50 with NCI/ADR-RES ovarian was 3090 nM; with SNB-19 CNS it was 2010 nM; with CCRF-CEM leukemia, greater than 100000 nM. Also, the TGI in the test with UACC-62 melanoma was 5.07 µM; with TK-10 renal, 5.17 µM; with HCT-15 colon, greater than 100 µM; in the test on COLO 205 colon, greater than 100 µM; in the test with K-562 leukemia, greater than 100 µM; in the test with HCC-2998 colon, greater than 100 µM. Besides, the TGI in the test with NCI/ADR-RES ovarian was 8.94 µM; in the test with SNB-19 CNS it was 4.33 µM; in the test with CCRF-CEM leukemia, greater than 100 µM.

In the case of `CC(C)CC(CC1=CCC2CC1C2(C)C)C1=C(O)C(C)(C)C(=O)C(C)(C)C1=O` (configuration not stated), the GI50 in the test on UACC-62 melanoma is 266 nM; in the test on RPMI-8226 leukemia, 227 nM; with TK-10 renal, 424 nM; with HCT-15 colon it was 350 nM; with K-562 leukemia, 334 nM; in the test on NCI/ADR-RES ovarian it was 306 nM. Besides, the figures for the GI50 in the test on SNB-19 CNS and with CCRF-CEM leukemia were 375 nM and 353 nM, respectively. The TGI in the test on UACC-62 melanoma is 1.17 µM; in the test with RPMI-8226 leukemia it was 0.558 µM; with TK-10 renal, 98.9 µM; in the test with HCT-15 colon it was 5.18 µM; in the test on K-562 leukemia, greater than 100 µM; in the test with NCI/ADR-RES ovarian it was 0.979 µM. For the same molecule, the TGI is greater than 100 µM in the test with SNB-19 CNS and 3.12 µM in the test with CCRF-CEM leukemia.

As for `COc1cc(C(=O)C/C(CCC(=O)Nc2ccccc2[N+](=O)[O-])=N\NC(=O)CC#N)ccc1O`, the TGI in the test on UACC-62 melanoma, in the test on RPMI-8226 leukemia, in the test with TK-10 renal, in the test with HCT-15 colon, in the test with COLO 205 colon and in the test on K-562 leukemia was greater than 100 µM throughout. Further, the TGI with HCC-2998 colon, with SNB-19 CNS and in the test on CCRF-CEM leukemia was greater than 100 µM throughout.

On to `Nn1c(-c2ccccc2Cl)nc2ccccc2c1=O`, for which the TGI in the test with UACC-62 melanoma, with RPMI-8226 leukemia, in the test with TK-10 renal, in the test with HCT-15 colon, in the test on COLO 205 colon and in the test with K-562 leukemia was greater than 100 µM throughout. In addition, the TGI in the test with HCC-2998 colon, in the test on SNB-19 CNS and in the test on CCRF-CEM leukemia was greater than 100 µM each time.

As to `Cc1c(C#N)c(=O)[nH]c(=O)n1CCN1CCN(C(=O)NCCCCCCNC(=O)N2CCN(CCn3c(C)c(C#N)c(=O)[nH]c3=O)CC2)CC1`, the TGI with UACC-62 melanoma, in the test on RPMI-8226 leukemia, in the test with TK-10 renal, in the test with HCT-15 colon, in the test with COLO 205 colon and in the test with K-562 leukemia was greater than 100 µM in each case. For the same molecule, the TGI in the test with HCC-2998 colon, with SNB-19 CNS and in the test on CCRF-CEM leukemia was greater than 100 µM in each case.
